# Literature values, collected in patent US20030149010A1, “Combination of an aldosterone receptor antagonist and an HMG CoA reductase inhibitor” (priority 2001, published 2003).
# What was measured:
# [1] = system: patients afflicted with congestive heart failure; settings: coadministered with an ACE inhibitor
# [2] = system: patients with severe heart failure; settings: spironolactone added to ACE inhibitor therapy; 1663 patients with severe heart failure
compound,measurement,setting,value
"CC(=O)S[C@@H]1CC2=CC(=O)CC[C@]2(C)[C@H]2CC[C@@]3(C)[C@@H](CC[C@@]34CCC(=O)O4)[C@H]12 [spironolactone, 17-hydroxy-7α-mercapto-3-oxo-17α-pregn-4-ene-21-carboxylic acid γ-lactone acetate]",effectiveness in congestive heart failure,[1],highly effective in 13 of 16 patients
same,reduction in hospitalizations,[2],35%
same,reduction in mortality,[2],30%
